The values below come from US11447498B2, “Fused tetracyclic compounds and uses thereof in medicine” (SUNSHINE LAKE PHARMA CO., LTD., priority 2018, dated 2022).

The subject of one experiment is HBV DNA replication. The experiment can be described thus: Inhibition experiment on HBV virus replication (HepG 2,2,15 cells, supernatant HBV DNA by qPCR). Type of experiment: cell-based. The conditions noted are these: Hepatitis B virus, HepG2.2.15, 10 days treatment, supernatant HBV DNA on day 11. The source says:
(§1) The chromosomal integration of HepG2,2,15 cells (SELLS, PNAS, 1987 and SELLS, JV, 1988) has a complete HBV genome and stably expresses viral RNA and viral proteins. HepG2,2,15 cells are capable of secreting mature hepatitis B virus particles and HBsAg into the culture medium. Virus particles DNA and HBsAg secreted by HepG 2,2,15 cells can be quantified by qPCR and ELISA, and the effects of compounds on viral replication and HBsAg secretion can be detected.
HepG 2,2,15 cells were inoculated with 8,000 per cell to 96-well cell culture plates in duplicate, and were cultured for 3 days until the cells grew to full-hole. Cells were treated with 4-fold serial dilutions of compounds for 10 days, and were given once every other day. The final concentration of DMSO in all pores was 0.5% and DMSO was used as a drug-free control. The supernatant was collected for quantitative detection of HBV DNA on day 11.
Viral genomic DNA was detected by qPCR method, and HBV primers were as follows: […]
The SYBR Premix Ex Taq D-Takara DRR081S kit was used, and 1 μL of cell culture supernatant was used as a template. A standard curve was made using a plasmid containing the HBV genome, and the viral copy number was calculated using the standard curve. Concentration-virus copy number was processed using Graphpad Prism 5 software, and IC50 of compounds inhibiting virus replication was calculated by four-parameter nonlinear regression model.

The test system of another experiment is HBsAg secretion. The experiment can be described thus: Inhibition experiment on HBsAg secretion (HepG 2,2,15 cells, ELISA). Type of experiment: cell-based. The note with it: Hepatitis B virus, HepG2.2.15, read-out: HBsAg IC50.
Excerpt: as §1
HepG 2,2,15 cells were inoculated with 8,000 per cell to 96-well cell culture plates in duplicate, and were cultured for 3 days until the cells grew to full-hole. Cells were treated with 4-fold serial dilutions of compounds for 10 days, and were given once every other day. The final concentration of DMSO in all pores was 0.5% and DMSO was used as a drug-free control. The supernatant was collected for quantitative detection of HBsAg on day 11.
The level of HBsAg secreted by the cells after treatment of the compound was detected by ELISA method, and the method used a hepatitis B surface antigen diagnostic kit (Shanghai Kehua Biotech Co., Ltd. S10910113). 25 μL of the supernatant to be assayed (PBS was diluted to 75 μL) was added to per well in the ELISA plate, and the kit positive control and negative control were set. The ELIS A plate was blocked with a cover paper and incubated at 37° C. for 60 minutes. The ELISA plate was taken out, and the cover paper was teared off, and 50 μL of enzyme conjugate was added to each well. The ELISA plate was oscillated on the shaker for 10 seconds, blocked with a cover paper and incubated at 37° C. for 30 minutes. The ELISA plate was taken out, the cover paper was teared off, and the ELISA plate was washed 5 times: each time the liquid in the hole was discarded, and the washing liquid was filled into the holes, left to stand for 60 seconds, dried, and the liquid residue was patted to dry on the absorbent paper. A freshly prepared mixture of Developer A and Developer B was added to all wells immediately after washing: 100 μL per well. The ELISA plate was oscillated on the shaker for 10 seconds, blocked with a cover paper and incubated at 37° C. for 30 minutes. 50 μL of stop solution was added to all wells. Absorbance was read on the Envision plate reader at a wavelength of 450 nm.
Concentration-HBsAg OD450 was processed using Graphpad Prism 5 software, and IC50 of compounds inhibiting against HBsAg secretion was calculated by four-parameter nonlinear regression model.

As a reminder, the IC50 is the point on the concentration scale where inhibition reaches its midpoint. On to `CC(C)C1Cc2cc(C#CC3CC3)c3c(c2-c2cc(=O)c(C(=O)O)cn21)CCO3` (stereo not drawn) [Example 31, 4-(Cyclopropylethynyl)-7-isopropyl-11-oxo-2,6,7,11-tetrahydro-1H-furo [2,3-h]pyrido[2,1-a]isoquinoline-10-carboxylic Acid], for which the IC50 in the experiment on HBV DNA replication stood at 0.72 nM; in the experiment on HBsAg secretion, 1.39 nM.

For the compound `CC(C)n1cc(-c2cc3c(c4c2OCC4)-c2cc(=O)c(C(=O)O)cn2N2C3CCC2(C)C)cn1` (stereo not drawn) [Example 14, 5-(1-Isopropyl-1H-pyrazol-4-yl)-1,1-dimethyl-10-oxo-2,3,3a,7,8,10-hexahydro-1H-furo[3,2-f]pyrido[1,2-c]pyrrolo[2,1-a]phthalazine-11-carboxylic Acid], the IC50 is less than 0.24 nM in the experiment on HBV DNA replication and 0.38 nM with HBsAg secretion.

Take `CC(C)C1Cc2cc(OCC3CC3)c3c(c2-c2cc(=O)c(C(=O)O)cn21)CCO3` (stereo not drawn) [Example 23, 4-(Cyclopropylmethoxy)-7-isopropyl-11-oxo-2,6,7,11-tetrahydro-11-furo [2,3-h]pyrido[2,1-a]isoquinoline-10-carboxylic Acid]: the 50% inhibitory concentration (IC50) in the experiment on HBV DNA replication was 3.36 nM; in the experiment on HBsAg secretion, 1.14 nM.

In the experiment on HBV DNA replication, `COCCCOc1cc2c(c3c1OCC3)-c1cc(=O)c(C(=O)O)cn1N(C(C)C)C2` [Example 16, 7-Isopropyl-4-(3-methoxypropoxy)-11-oxo-2,6,7,11-tetrahydro-1H-furo[2,3-h]pyrido[2,1-a]phthalazine-10-carboxylic Acid] registered an IC50 of 2.49 nM.

On to `COCCCOc1cc2c(c3c1OC(C)(C)C3)-c1cc(=O)c(C(=O)O)cn1C(C(C)C)C2` (stereo not drawn) [Example 39, 7-Isopropyl-4-(3-methoxypropoxy)-2,2-dimethyl-11-oxo-2,6,7,11-tetrahydro-1H-furo[2,3h]pyrido[2,1-a]isoquinoline-10-carboxylic Acid], for which the IC50 is 1.65 nM with HBV DNA replication and 0.91 nM in the experiment with HBsAg secretion.

On to `CC(C)C1Cc2cc(-c3cnn(C(F)F)c3)c3c(c2-c2cc(=O)c(C(=O)O)cn21)CCO3` (stereo not drawn) [Example 10, 4-(l (Difluoromethyl)-1H-pyrazol-4-yl)-7-isopropyl-11-oxo-2,6,7,11-tetrahydro-1H-furo[2,3-h]pyrido[2,1-a]isoquinoline-10-carboxylic Acid], for which the values for the IC50 in the experiment on HBV DNA replication and with HBsAg secretion were 0.98 nM and 2.34 nM, respectively.

As for `CC(C)C1Cc2cc(-c3cccs3)c3c(c2-c2cc(=O)c(C(=O)O)cn21)CCO3` (stereo not drawn) [Example 11, 7-Isopropyl-11-oxo-4-(thiophen-2-yl)-2,6,7,11-tetrahydro-1H-furo[2,3-h]pyrido[2,1-a]isoquinoline-10-carboxylic Acid], the IC50 in the experiment on HBV DNA replication turned out to be 0.78 nM; in the experiment on HBsAg secretion, 0.92 nM.

On to `COc1ccc(-c2cc3c(c4c2OCC4)-c2cc(=O)c(C(=O)O)cn2C(C(C)C)C3)cc1` (stereo not drawn) [Example 26, 7-Isopropyl-4-(4-methoxyphenyl)-11-oxo-2,6,7,11-tetrahydro-1H-furo[2,3-h]pyrido[2,1-a]isoquinoline-10-carboxylic Acid], for which the IC50 was 1.09 nM in the experiment with HBV DNA replication and 1.33 nM in the experiment on HBsAg secretion.

In the case of `CC(C)C1Cc2cc(-c3ccc(-c4ccccc4)cc3)c3c(c2-c2cc(=O)c(C(=O)O)cn21)CCO3` (stereo not drawn) [Example 25, 4-([1,1′-Biphenyl]-4-yl)-7-isopropyl-11-oxo-2,6,7,11-tetrahydro-1H-furo[2,3-h]pyrido[2,1-a]isoquinoline-10-carboxylic Acid], the IC50 is 0.72 nM in the experiment on HBV DNA replication and 1.4 nM in the experiment with HBsAg secretion.

As to `CC(C)C1Cc2cc(-c3ccncc3)c3c(c2-c2cc(=O)c(C(=O)O)cn21)CCO3` (stereo not drawn) [Example 29, 7-Isopropyl-11-oxo-4-(pyridine-4-yl)-2,6,7,11-tetrahydro-1H-furo[2,3-h]pyrido [2,1-a]isoquinoline-10-carboxylic Acid], the IC50 amounted to 0.97 nM in the experiment on HBV DNA replication and 2.64 nM in the experiment on HBsAg secretion.

For the compound `CC(C)C1Cc2cc(OCC3CCOCC3)c3c(c2-c2cc(=O)c(C(=O)O)cn21)CCO3` (stereo not drawn) [Example 5, 7-Isopropyl-11-oxo-4-((tetrahydro-2H-pyran-4-yl)methoxy)-2,6,7,11-tetrahydro-1H-furo[2,3-h]pyrido[2,1-a]isoquinoline-10-carboxylic Acid], the IC50 worked out at 3.4 nM in the experiment on HBV DNA replication and 2.35 nM in the experiment with HBsAg secretion.

On to `CC(C)C1Cc2cc(-c3cncnc3)c3c(c2-c2cc(=O)c(C(=O)O)cn21)CCO3` (stereo not drawn) [Example 30, 7-Isopropyl-11-oxo-4-(pyrimidin-5-yl)-2,6,7,11-tetrahydro-1H-furo[2,3-h]pyrido[2,1-a]isoquinoline-10-carboxylic Acid], for which the IC50 in the experiment with HBV DNA replication came to 1.95 nM; in the experiment with HBsAg secretion it was 5.3 nM.

Regarding `CC(C)C1Cc2cc(-c3cnn(C4CCC4)c3)c3c(c2-c2cc(=O)c(C(=O)O)cn21)CCO3` (stereo not drawn) [Example 33, 4-(1-Cyclobutyl-1H-pyrazol-4-yl)-7-isopropyl-11-oxo-2,6,7,11-tetrahydro-1H-furo[2,3-h]pyrido[2,1-a]isoquinoline-10-carboxylic Acid], the figures for the IC50 in the experiment on HBV DNA replication and in the experiment with HBsAg secretion were 1.23 nM and 1.36 nM, respectively.

For `O=C(O)c1cn2c(cc1=O)-c1c(cc(OCCC3CC3)c3c1CCO3)CN2c1nccs1` [Example 47, 4-(2-Cyclopropylethoxy)-11-oxo-7-(thiazol-2-yl)-2,6,7,11-tetrahydro-1H-furo [2,3-h]pyrido[2,1-a]phthalazine-10-carboxylic Acid], in the experiment on HBV DNA replication, the midpoint of inhibition, the IC50, lay at 3.31 nM.

As for `CC(C)C1Cc2cc(-c3nccs3)c3c(c2-c2cc(=O)c(C(=O)O)cn21)CCO3` (stereo not drawn) [Example 8, 7-isopropyl-11-oxo-4-(thiazol-2-yl)-2,6,7,11-tetrahydro-1H-furo[2,3-h]pyrido [2,1-a]isoquinoline-10-carboxylic Acid], the IC50 amounted to 0.52 nM with HBV DNA replication and 1.63 nM in the experiment on HBsAg secretion.

In the case of `CC(C)C1Cc2cc(OCCc3ccccc3)c3c(c2-c2cc(=O)c(C(=O)O)cn21)CCO3` (stereo not drawn) [Example 6, 7-Isopropyl-11-oxo-4-phenylethoxy-2,6,7,11-tetrahydro-1H-furo[2,3-h]pyrido [2,1-a]isoquinoline-10-carboxylic Acid], the IC50 in the experiment with HBV DNA replication stood at 0.86 nM; in the experiment on HBsAg secretion, 1.92 nM.

Regarding `CC(C)C1Cc2cc(OCC3CCCC3)c3c(c2-c2cc(=O)c(C(=O)O)cn21)CCO3` (stereo not drawn) [Example 22, 4-(Cyclopentylmethoxy)-7-isopropyl-11-oxo-2,6,7,11-tetrahydro-1H-furo[2,3-h]pyrido[2,1-a]isoquinoline-10-carboxylic Acid], the concentration for half-maximal inhibition (IC50) with HBV DNA replication came to 2.26 nM.

`CC(C)C1Cc2cc(OCCOC3CC3)c3c(c2-c2cc(=O)c(C(=O)O)cn21)CCO3` (stereo not drawn) [Example 4, 4-(2-Cyclopropoxyethoxy)-7-isopropyl-11-oxo-2,6,7,11-tetrahydro-1H-furo [2,3-h]pyrido[2,1-a]isoquinoline-10-carboxylic Acid] came in with an IC50 in the experiment with HBV DNA replication of 3.84 nM.

Consider `CC(C)C1Cc2cc(OCCC(F)(F)F)c3c(c2-c2cc(=O)c(C(=O)O)cn21)CCO3` (stereo not drawn) [Example 7, 7-Isopropyl-11-oxo-4-(3,3,3-trifluoropropoxy)-2,6,7,11-tetrahydro-1H-furo [2,3-h]pyrido[2,1-a]isoquinoline-10-carboxylic Acid], for which the IC50 with HBV DNA replication was 1.87 nM.

Take `CC(C)[C@@H]1Cc2cc(-c3cnn(C(F)F)c3)c3c(c2-c2cc(=O)c(C(=O)O)cn21)CCO3` [Example 10A, 4-(1-(Difluoromethyl)-1H-pyrazol-4-yl)-7-isopropyl-11-oxo-2,6,7,11-tetrahydro-1H-furo[2,3-h]pyrido[2,1-a]isoquinoline-10-carboxylic Acid]: the IC50 in the experiment with HBsAg secretion worked out at 0.54 nM.

On to `CC(C)[C@@H]1Cc2cc(OCCC3CC3)c3c(c2-c2cc(=O)c(C(=O)O)cn21)CCO3` [Example 3A, (S)-4-(2-Cyclopropylethoxy)-7-isopropyl-11-oxo-2,6,7,11-tetrahydro-1H-furo [2,3-h]pyrido[2,1-a]isoquinoline-10-carboxylic Acid], for which, in the experiment with HBsAg secretion, the IC50 stood at 0.76 nM.

With `CC(C)CCOc1cc2c(c3c1OCC3)-c1cc(=O)c(C(=O)O)cn1C(C(C)C)C2` (stereo not drawn) [Example 21, 4-(Isopentyloxy)-7-isopropyl-11-oxo-2,6,7,11-tetrahydro-1H-furo[2,3-h]pyrido [2,1-a]isoquinoline-10-carboxylic Acid], the concentration for half-maximal inhibition (IC50) in the experiment on HBsAg secretion worked out at 1.55 nM.
